# Test system: spontaneous hypertensive rats
# Settings: oral dose of 100 mg/kg, dissolved in water, male spontaneous hypertensive rats
# Description: (B) Effect on spontaneous hypertensive rats
# 14 to 17-week-old male spontaneous hypertensive rats with mean arterial blood pressure of about 150 mmHg, weighing 270-326 g, were used. The animals were cannulated in the left femoral artery and the mean blood pressure and heart rate were measured with a pressure-transducer. The drugs were given orally. The animals were deprived of food for about 18 hours before oral dosing. The test drugs were dissolved in water, and given in oral dose of 100 mg/kg.
compound,measurement,value
"CCCCc1nc2cccnc2n1Cc1ccc(-c2ccccc2-c2nnn[n-]2)cc1.[Na+] [compound ①, Sodium salt of 2-butyl-3-[[2′-(1H-tetrazol-5-yl)biphenyl-4-yl]methyl]-3H-imidazo[4,5-b]pyridine]",Effect Max (mean ratio of maximum decrease of blood pressure),17.6%

# — patent publication EP0426021A1, “Condensed imidazole derivatives and processes for preparation thereof” (FUJISAWA PHARMACEUTICAL CO., LTD., priority 1989, dated 1991)
